Tests used:
human recombinant Btk = target: T1, human recombinant Btk (Homo sapiens, UniProt Q06187); assay: Human Recombinant Btk Enzyme Assay; type: biochemical; details: human recombinant Btk 1 nM, ATP 20 μM, 60 min at room temperature; read-out: IC50 for Inhibition of Btk
T1 construct: purchased Invitrogen Corporation

Ramos RA1 B cells = assay: Ramos FLIPR Assay; type: cell-based; details: goat anti-human IgM 2.5 μg/mL, peak intracellular calcium, read-out: IC50 for Inhibition of Ramos FLIPR assay
[1] = test system: anti-KLH IgG response in BALB/c mice; assay: KLH Antigen Challenge and Antibody Measurement; type: in vivo, mouse; details: female BALB/c mice, serum 14 days post-immunization
Method: KLH Antigen Challenge and Antibody Measurement
Female BALB/c mice (6-8 weeks old) were immunized intraperitoneally (IP) with 250 μg keyhole limit hemocyanin (KLH) (Pierce, Rockford, Ill.) in phosphate-buffered saline (PBS). Mice in appropriate groups were dosed as indicated. Blood was collected 14 days post-immunization, serum was separated and analyzed for anti-KLH IgG titers by ELISA. Briefly, 96 well plates were coated with KLH in PBS, blocked, and serial dilutions of test serum samples were added.

T1 sequence (Q06187 whole entry): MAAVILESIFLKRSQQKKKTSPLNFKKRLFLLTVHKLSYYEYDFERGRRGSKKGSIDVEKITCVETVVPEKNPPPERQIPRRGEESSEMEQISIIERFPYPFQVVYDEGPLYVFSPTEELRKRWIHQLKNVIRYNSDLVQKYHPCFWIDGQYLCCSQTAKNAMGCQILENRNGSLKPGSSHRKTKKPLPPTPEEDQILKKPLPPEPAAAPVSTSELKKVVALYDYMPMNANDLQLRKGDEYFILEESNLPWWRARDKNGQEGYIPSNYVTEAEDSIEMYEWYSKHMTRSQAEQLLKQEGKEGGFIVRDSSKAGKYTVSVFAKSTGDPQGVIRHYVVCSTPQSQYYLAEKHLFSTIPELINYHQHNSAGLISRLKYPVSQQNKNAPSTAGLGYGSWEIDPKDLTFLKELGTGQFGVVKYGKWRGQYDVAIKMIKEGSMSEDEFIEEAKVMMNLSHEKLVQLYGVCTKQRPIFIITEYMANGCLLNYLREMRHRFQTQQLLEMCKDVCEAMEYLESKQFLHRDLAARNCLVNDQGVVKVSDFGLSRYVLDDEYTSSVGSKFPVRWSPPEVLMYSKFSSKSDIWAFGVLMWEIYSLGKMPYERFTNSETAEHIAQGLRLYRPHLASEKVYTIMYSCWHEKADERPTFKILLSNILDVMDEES

Structure (SMILES) | IC50 (human recombinant Btk) | IC50 (Ramos RA1 B cells) | inhibited the anti-KLH IgG response ([1]; 10 mg/kg twice daily) | inhibited the anti-KLH IgG response ([1]; 30 mg/kg twice daily)
COC(CO)c1ccc2c(c1)[nH]c1c(C(N)=O)ccc(-c3cccc(N4Cc5ccc(C)cc5C4=O)c3C)c12 (racemic) [Example 75-3] | 1.1 nM | 16 nM |  | 
CC(=O)NCc1ccc2c(c1)[nH]c1c(C(N)=O)ccc(-c3cccc(-n4cnc5ccc(F)cc5c4=O)c3C)c12 [Example 38-3, 7-(acetamidomethyl)-4-(3-(6-fluoro-4-oxoquinazolin-3(4H)-yl)-2-methylphenyl)-9H-carbazole-1-carboxamide] | 1.4 nM | 23 nM |  | 
Cc1c(-c2ccc(C(N)=O)c3[nH]c4cc(C(O)CO)ccc4c23)cccc1-n1cnc2ccc(F)cc2c1=O (centres unmarked) [Example 70-13] | 0.7 nM | 11 nM |  | 
Cc1c(-c2ccc(C(N)=O)c3[nH]c4cc(C(O)CO)ccc4c23)cccc1-n1cnc2ccc(Cl)cc2c1=O (centres unmarked) [Example 70-14] | 0.9 nM | 14 nM |  | 
Cc1c(-c2ccc(C(N)=O)c3[nH]c4cc(C(C)(C)O)ccc4c23)cccc1N1Cc2ccc(F)cc2C1=O [Example 76-15] | 2.4 nM | 48 nM | 29% | 56%
Cc1c(-c2ccc(C(N)=O)c3[nH]c4cc(C(C)(C)O)ccc4c23)cccc1-n1cnc2cccc(F)c2c1=O [Example 76-26] |  | 18 nM |  | 
COc1ccc2c(c1)CN(c1cccc(-c3ccc(C(N)=O)c4[nH]c5cc(C(C)(C)O)ccc5c34)c1C)C2=O [Example 76-32, 7-(2-hydroxypropan-2-yl)-4-(3-(5-methoxy-1-oxoisoindolin-2-yl)-2-methylphenyl)-9H-carbazole-1-carboxamide] | 3.2 nM | 38 nM |  | 
Cc1ccc2ncn(-c3cccc(-c4ccc(C(N)=O)c5[nH]c6c(c45)CCC(C(C)(C)O)C6)c3C)c(=O)c2c1 (centres unmarked) [Example 76-43] |  | 260 nM |  | 
Cc1c(/N=C2\OCc3ccncc32)cccc1-c1ccc(C(N)=O)c2[nH]c3cc(C(C)(C)OCCO)ccc3c12 [Example 76-49] |  | 14 nM |  | 
Cc1c(-c2ccc(C(N)=O)c3[nH]c4cc(C(C)(C)O)ccc4c23)cccc1-n1cnc2c(F)cccc2c1=O [Example 76-51] | 1.4 nM | 17 nM |  | 
Cc1cn2ccn(-c3cccc(-c4ccc(C(N)=O)c5[nH]c6cc(NC(C)C)ccc6c45)c3C)c(=O)c2n1 [Example 80-2] |  | 16 nM |  | 
Cc1c(Nc2ncnc3c(F)cccc23)cccc1-c1ccc(C(N)=O)c2[nH]c3cc(C(C)(C)O)ccc3c12 [Example 81-1, 4-(3-(8-fluoroquinazolin-4-ylamino)-2-methylphenyl)-7-(2-hydroxypropan-2-yl)-9H-carbazole-1-carboxamide] |  | 15 nM |  | 
COC1=CC(=O)N(c2cccc(-c3ccc(C(N)=O)c4[nH]c5cc(C(C)(C)O)ccc5c34)c2C)C1 [Example 82-1, 7-(2-hydroxypropan-2-yl)-4-(3-(4-methoxy-2-oxo-2,5-dihydro-1H-pyrrol-1-yl)-2-methylphenyl)-9H-carbazole-1-carboxamide] | 1.9 nM | 17 nM |  | 
